Source: patent US7034035B2, “Fungicidal mono-, bi-, and tri-cycloheteroalkyl amides and their compositions, methods of use and preparation” (priority 1999, dated 2006)
Where two headings read alike, the source gives them in different places.

Experiments:
[1] = tested on: Leptosphaeria nodorum—LEPTNO; assay: Glume Blotch of Wheat, in vivo whole plant, 24 Hour Protectant; conditions: inoculated after 24 hours; for pest or weed control at 100 ppm: Leptosphaeria, 24 h, read-out: LEPTNO in vivo 1 Day Protectant
[2] = tested on: Phytophthora infestans—PHYTIN; assay: whole plant or invertebrate; assay type: in vivo; conditions: Phytophthora, in Solanum lycopersicum, 24 h, read-out: PHYTIN in vivo 1 Day Protectant
Septoria tritici—SEPTTR = assay: Leaf Blotch of Wheat, in vivo whole plant, 24 Hour Protectant; conditions: for pest or weed control at 100 ppm: Zymoseptoria tritici, read-out: SEPTTR in vivo 1 Day Protectant
Ustilago maydis (USTIMA) = assay: microbe, parasite or virus in culture; assay type: cell-based
[3] = tested on: Rhizoctonia solani (RHIZSO); assay: microbe, parasite or virus in culture; assay type: cell-based
[4] = tested on: Mycosphaerella graminicola (Septoria tritici—SEPTTR); assay: Inhibition of in vitro fungal growth, SEPTTR; assay type: cell-based
[5] = tested on: Stagonospora nodorum (Leptosphaeria nodorum—LEPTNO); assay: Inhibition of in vitro fungal growth, LEPTNO; assay type: cell-based
Erysiphe graminis—ERYSGT = assay: Powdery Mildew of Wheat, in vivo whole plant, 24 Hour Protectant; conditions: for ERYSGT in vivo 1 Day Protectant: wheat (cultivar Monon), sprayed at 100 ppm, inoculated after 24 hours, control of fungal infection vs untreated plants; for pest or weed control at 100 ppm: Erysiphe, in Triticum aestivum, 24 h, read-out: ERYSGT in vivo 1 Day Protectant
[6] = tested on: Puccinia recondita—PUCCRT; assay: Brown Rust of Wheat, in vivo whole plant, 24 Hour Protectant; conditions: inoculated after 24 hours; for pest or weed control at 100 ppm: Puccinia, read-out: PUCCRT in vivo 1 Day Protectant
[7] = wheat plants sprayed at 100 ppm, control vs untreated plants
[8] = wheat (cultivar Yuma), sprayed at 100 ppm, control of fungal infection vs untreated plants
[9] = wheat (cultivar Yuma), sprayed at 100 ppm, inoculated after 24 hours, control of fungal infection vs untreated plants

| SMILES | pest or weed control at 100 ppm [1, 8] [%] | pest or weed control at 100 ppm (Septoria tritici—SEPTTR; [9]) [%] | USTIMA in vitro Growth Inhibition (Ustilago maydis (USTIMA)) | RHIZSO in vitro Growth Inhibition [3] | SEPTTR in vitro Growth Inhibition [4] | LEPTNO in vitro Growth Inhibition [5] | also measured |
| --- | --- | --- | --- | --- | --- | --- | --- |
| CC(C)C(=O)O[C@H]1[C@H](C)OC(=O)[C@@H](NC(=O)c2nsnc2O)COC(=O)[C@@H]1Cc1ccccc1 [Compound 553] |  |  |  |  |  |  | pest or weed control at 100 ppm [1, 7]: 75 to 100%; pest or weed control at 100 ppm [2]: 75 to 100% |
| COc1ccnc(C(=O)NC2C(=O)c3ccc(-c4ccco4)cc3OC2C)c1O (stereo not drawn) [Compound 323] | 75 to 100 | 75 to 100 | − (key: +: at least 80% growth inhibition; −: less than 80% growth inhibition) | + (key: +: at least 80% growth inhibition; −: less than 80% growth inhibition) |  |  |  |
| COc1ccnc(C(=O)NC2CCN(Cc3cccc(C(F)(F)F)c3)CC2)c1O.O=C(O)/C=C\C(=O)O.O=C(O)/C=C\C(=O)O [Compound 307] |  |  | − (key: +: at least 80% growth inhibition; −: less than 80% growth inhibition) | − (key: +: at least 80% growth inhibition; −: less than 80% growth inhibition) | − (key: +: at least 80% growth inhibition; −: less than 80% growth inhibition) | − (key: +: at least 80% growth inhibition; −: less than 80% growth inhibition) | LEPTNO in vivo 1 Day Protectant [1, 8]: − (<25% control of fungal infection); ERYSGT in vivo 1 Day Protectant (Erysiphe graminis—ERYSGT): + (25-74% control of fungal infection); PUCCRT in vivo 1 Day Protectant [6, 8]: − (<25% control of fungal infection) |
| COc1ccnc(C(=O)N[C@H]2C[C@@H](O[Si](C)(C)C(C)(C)C)O[C@@H](C)[C@@H]2OCc2ccccc2)c1O [Compound 328] |  |  | − (key: +: at least 80% growth inhibition; −: less than 80% growth inhibition) | − (key: +: at least 80% growth inhibition; −: less than 80% growth inhibition) | − (key: +: at least 80% growth inhibition; −: less than 80% growth inhibition) | − (key: +: at least 80% growth inhibition; −: less than 80% growth inhibition) |  |
| COc1ccnc(C(=O)N[C@@H]2C[C@@H](O[Si](C)(C)C(C)(C)C)O[C@@H](C)[C@@H]2OCc2ccccc2)c1O [Compound 327] |  | 75 to 100 | − (key: +: at least 80% growth inhibition; −: less than 80% growth inhibition) | − (key: +: at least 80% growth inhibition; −: less than 80% growth inhibition) | − (key: +: at least 80% growth inhibition; −: less than 80% growth inhibition) | − (key: +: at least 80% growth inhibition; −: less than 80% growth inhibition) |  |
| COc1cccc(Oc2ccc(NC(=O)c3nccc(OC)c3O)cc2)c1 [Compound 435] |  |  |  |  |  |  | LEPTNO in vivo 1 Day Protectant [1, 8]: + (25-74% control of fungal infection); SEPTTR in vivo 1 Day Protectant (Septoria tritici—SEPTTR; [9]): − (<25% control of fungal infection); pest or weed control at 100 ppm (Erysiphe graminis—ERYSGT): < 25%; PUCCRT in vivo 1 Day Protectant [6, 8]: − (<25% control of fungal infection) |
| Br.COc1ccnc(C(=O)NC2C[C@@H](Cc3ccccc3)O[C@@H](C)C2)c1O (stereo partly drawn) [Compound 311] |  |  | − (key: +: at least 80% growth inhibition; −: less than 80% growth inhibition) | − (key: +: at least 80% growth inhibition; −: less than 80% growth inhibition) | − (key: +: at least 80% growth inhibition; −: less than 80% growth inhibition) | − (key: +: at least 80% growth inhibition; −: less than 80% growth inhibition) | LEPTNO in vivo 1 Day Protectant [1, 8]: + (25-74% control of fungal infection); pest or weed control at 100 ppm (Septoria tritici—SEPTTR; 24 h): 75 to 100%; ERYSGT in vivo 1 Day Protectant (Erysiphe graminis—ERYSGT): − (<25% control of fungal infection); PUCCRT in vivo 1 Day Protectant [6, 8]: + (25-74% control of fungal infection) |
| COc1ccnc(C(=O)NC2COC(=O)[C@H](Cc3ccccc3)[C@@H](OC(=O)C(C)C)[C@H](C)OC2=O)c1O (stereo partly drawn) [Compound 475] |  |  |  |  |  |  | pest or weed control at 100 ppm [1, 7]: 75 to 100%; pest or weed control at 100 ppm (Septoria tritici—SEPTTR; wheat plants sprayed at 100 ppm, inoculated after 24 hours, control vs untreated plants): 25 to 74%; pest or weed control at 100 ppm [2]: < 25%; pest or weed control at 100 ppm (Erysiphe graminis—ERYSGT): < 25%; pest or weed control at 100 ppm [6, 7]: 25 to 74% |
| CCC1(C)CC(NC(=O)c2nccc(OC)c2O)CC(C)(C)C1 (stereo not drawn) [Compound 251] | 75 to 100 | 75 to 100 | − (key: +: at least 80% growth inhibition; −: less than 80% growth inhibition) | − (key: +: at least 80% growth inhibition; −: less than 80% growth inhibition) |  |  | pest or weed control at 100 ppm [6, 8]: 75 to 100% |
| COC(=O)C(COC(=O)C(CO[Si](C)(C)C(C)(C)C)Cc1ccccc1)NC(=O)c1nccc(OC)c1O (stereo not drawn) [Compound 350] | 75 to 100 | < 25 |  |  |  |  | pest or weed control at 100 ppm [2]: < 25%; pest or weed control at 100 ppm (Erysiphe graminis—ERYSGT): < 25%; pest or weed control at 100 ppm [6, 8]: 75 to 100% |
| COc1ccnc(C(=O)N[C@@H](Cc2ccc(OCc3ccccc3)cc2)C(=O)OCc2ccccc2)c1O [Compound 339] | 75 to 100 | 75 to 100 | − (key: +: at least 80% growth inhibition; −: less than 80% growth inhibition) | − (key: +: at least 80% growth inhibition; −: less than 80% growth inhibition) |  |  | pest or weed control at 100 ppm [6, 8]: 75 to 100% |
